Test results taken from patent publication US9796700B2 (Celgene CAR LLC, priority 2013, dated 2017).

Tests used:
MEK1 activated ERK1 = MEK1 activated ERK1 (Homo sapiens (Human), UniProt P27361); assay: Omnia continuous-read kinase assay for potency against MEK1 activated ERK1; assay type: biochemical; settings: MEK1 activated ERK1, WT, ATP at KM
Text: Omnia Assay Protocol for Potency Assessment Against MEK1 Activated ERK1:
The protocol below describes continuous-read kinase assays to measure potency of compounds against activated ERK1 enzyme. The mechanics of the assay platform are best described by the vendor (Invitrogen, Carlsbad, Calif.) on their website at the following URL: invitrogen.com/site/us/en/home.html.
Briefly, a 1.25× stock of ERK1 enzyme (14-439-K) from Millipore (Billerica, Mass.), 5×ATP (AS001A) and ST17-Sox conjugated peptide substrate (KNZ1171C) were prepared in 1× kinase reaction buffer consisting of 20 mM Tris, pH 7.5, 5 mM MgCl2, 1 mM EGTA, 5 mM β-glycerophosphate, 5% glycerol (10× stock, KB002A) and 0.2 mM DTT. 10 μL of ATP/ST17-sox peptide substrate mix was combined with 0.5 μL volume of 100% DMSO and serially diluted compounds were prepared in 100% DMSO in a Corning (#3574) 384-well, white, non-binding surface microtiter plate (Corning, N.Y.). Kinase reactions were started with the addition of 40 μL of ERK1 solution and monitored every 71 seconds for 30-240 minutes at λex360/λem485 in a Synergy plate reader from BioTek (Winooski, Vt.). At the conclusion of each assay, progress curves from each well were examined for linear reaction kinetics and fit statistics (R^2, 95% confidence interval, absolute sum of squares). Initial velocity (0 minutes to ˜30+ minutes) from each reaction was determined from the slope of a plot of relative fluorescence units vs time (minutes or seconds) and then plotted against inhibitor concentration to estimate ^AppIC50 from log [Inhibitor] vs Response, Variable Slope model in GraphPad Prism from GraphPad Software (San Diego, Calif.).
[Reagent] used in optimized protocol:
[ERK1]=4 nM, [ATP]=50 μM, [ST17-Sox]=10 μM (ATP ^appKM 48 μM)
The results of this assay show the degree of inhibition of ERK activity, which is a direct measurement of inhibition of ERK activity. Results from this assay are reported in Table A under the column “ERK1 Omnia WT ATP KM IC50 (nM).”

Erk1 = Erk1 (Homo sapiens (Human), UniProt P27361); assay: Protein Mass Modification Assay (intact protein MALDI); assay type: binding
Sequence of Erk1 (P27361 whole entry, looked up): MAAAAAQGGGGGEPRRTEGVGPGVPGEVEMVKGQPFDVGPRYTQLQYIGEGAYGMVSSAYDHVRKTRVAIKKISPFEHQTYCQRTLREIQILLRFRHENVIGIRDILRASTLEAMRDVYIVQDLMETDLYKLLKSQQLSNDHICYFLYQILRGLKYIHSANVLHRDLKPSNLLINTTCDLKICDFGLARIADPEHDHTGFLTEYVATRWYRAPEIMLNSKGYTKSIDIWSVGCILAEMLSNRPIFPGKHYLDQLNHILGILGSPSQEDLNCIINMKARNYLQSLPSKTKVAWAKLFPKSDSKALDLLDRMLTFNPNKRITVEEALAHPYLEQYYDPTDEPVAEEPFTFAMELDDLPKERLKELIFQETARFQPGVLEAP
Outline: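 Percent covalent modification comes from the intact-protein MALDI centroid mass shift, treated versus control, divided by compound MW. Before analysis, human Erk1 was exposed to compound at 10-fold excess over protein for 60 min at room temperature.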

Sequence of MEK1 activated ERK1 (P27361 whole entry): as the sequence (P27361 whole entry, looked up) above

| SMILES | IC50 (MEK1 activated ERK1) | ERK1 Mass Mod (%) (Erk1) |
| --- | --- | --- |
| CC#CC(=O)N[C@@H]1CCCC[C@H]1Nc1nc(N[C@H]2CCCN(C(=O)CO)C2)ncc1C(F)(F)F [Compound I-33, N-((1R,2R)-2-((2-(((S)-1-(2-Hydroxyacetyl)piperidin-3-yl)amino)-5-(trifluoromethyl)pyrimidin-4-yl)amino)cyclohexyl)but-2-ynamide] | > 1000 nM | F (provided a mass modification of 31-69%) |
| C=CC(=O)Nc1cc(C)ccc1Nc1nc(N[C@H]2CCCN(C(=O)c3ccccc3)C2)ncc1C(F)(F)F [Compound I-44, (S)—N-(2-((2-((1-Benzoylpiperidin-3-yl)amino)-5-(trifluoromethyl)pyrimidin-4-yl)amino)-5-methylphenyl)acrylamide] | > 1000 nM | E (provided a mass modification of ≧70%) |
| C=CC(=O)Nc1ccccc1CNc1nc(N[C@H]2CCCN(C(=O)CO)C2)ncc1C(F)(F)F [Compound I-45, (S)—N-(2-(((2-((1-(2-Hydroxyacetyl)piperidin-3-yl)amino)-5-(trifluoromethyl)pyrimidin-4-yl)amino)methyl)phenyl)acrylamide] | > 1000 nM | G (proived a mass modification ≦30%) |
| C=C(F)C(=O)Nc1ccccc1Nc1nc(N[C@H]2CCCN(C(C)=O)C2)ncc1C(F)(F)F [Compound I-55, (S)—N-(2-((2-((1-Acetylpiperidin-3-yl)amino)-5-(trifluoromethyl)pyrimidin-4-yl)amino)phenyl)-2-fluoroacrylamide] | < 100 nM | E (provided a mass modification of ≧70%) |
| C=CC(=O)Nc1ccccc1Nc1nc(N[C@@H]2CCN(C(=O)OC)C2)ncc1C(F)(F)F [Compound I-61, (R)-Methyl 3-((4-((2-Acrylamidophenyl)amino)-5-(trifluoromethyl)pyrimidin-2-yl)amino)pyrrolidine-1-carboxylate] | > 1000 nM | E (provided a mass modification of ≧70%) |
| C=CC(=O)Nc1ccccc1Nc1nc(N[C@@H]2CCN(C(=O)CO)C2)ncc1C(F)(F)F [Compound I-62, (R)—N-(2-((2-((1-(2-Hydroxyacetyl)pyrrolidin-3-yl)amino)-5-(trifluoromethyl)pyrimidin-4-yl)amino)phenyl)acrylamide] | > 1000 nM | F (provided a mass modification of 31-69%) |
| C=CC(=O)Nc1cc(OC)ccc1Nc1nc(N[C@H]2CCCN(C(=O)CO)C2)ncc1C(F)(F)F [Compound I-64, (S)—N-(2-((2-((1-(2-Hydroxyacetyl)piperidin-3-yl)amino)-5-(trifluoromethyl)pyrimidin-4-yl)amino)-5-methoxyphenyl)acrylamide] | < 100 nM | E (provided a mass modification of ≧70%) |
| C=CC(=O)Nc1ccccc1Nc1nc(Nc2cc(C(=O)NOC)ccc2C)ncc1C(F)(F)F [Compound I-69, 3-((4-((2-Acrylamidophenyl)amino)-5-(trifluoromethyl)pyrimidin-2-yl)amino)-N-methoxy-4-methylbenzamide] | < 100 nM | E (provided a mass modification of ≧70%) |
| C=CC(=O)Nc1ccccc1Nc1nc(Nc2cc(C(N)=O)ccc2OC)ncc1C(F)(F)F [Compound I-70, 3-((4-((2-Acrylamidophenyl)amino)-5-(trifluoromethyl)pyrimidin-2-yl)amino)-4-methoxybenzamide] | < 100 nM | E (provided a mass modification of ≧70%) |
| C=CC(=O)Nc1ccccc1Nc1nc(Nc2cc(C(N)=O)ccc2C#N)ncc1C(F)(F)F [Compound I-71, 3-((4-((2-Acrylamidophenyl)amino)-5-(trifluoromethyl)pyrimidin-2-yl)amino)-4-cyanobenzamide] | < 100 nM | E (provided a mass modification of ≧70%) |
| C=CC(=O)Nc1cc(OC)ccc1Nc1nc(Nc2cc(OC)nc(N3CCN(CC)CC3)c2)ncc1C(F)(F)F [Compound I-88, N-(2-((2-((2-(4-Ethylpiperazin-1-yl)-6-methoxypyridin-4-yl)amino)-5-(trifluoromethyl)pyrimidin-4-yl)amino)-5-methoxyphenyl)acrylamide] | < 100 nM | E (provided a mass modification of ≧70%) |
| C=CC(=O)Nc1cc(C)ccc1Nc1nc(Nc2cc(OC)ncc2C)ncc1C(F)(F)F [Compound I-90, N-(2-((2-((2-Methoxy-5-methylpyridin-4-yl)amino)-5-(trifluoromethyl)pyrimidin-4-yl)amino)-5-methylphenyl)acrylamide] | < 100 nM | E (provided a mass modification of ≧70%) |
| C=CC(=O)Nc1cc(OC)ccc1Nc1nc(Nc2cc(OC)nc(N3CCN(C(C)=O)CC3)c2)ncc1C(F)(F)F [Compound I-91, N-(2-((2-((2-(4-Acetylpiperazin-1-yl)-6-methoxypyridin-4-yl)amino)-5-(trifluoromethyl)pyrimidin-4-yl)amino)-5-methoxyphenyl)acrylamide] | < 100 nM | E (provided a mass modification of ≧70%) |
| C=CC(=O)Nc1ccccc1Nc1nc(Nc2cc(OC)nc(OC)c2)ncc1C(F)(F)F [Compound I-95, N-(2-((2-((2,6-Dimethoxypyridin-4-yl)amino)-5-(trifluoromethyl)pyrimidin-4-yl)amino)phenyl)acrylamide] | < 100 nM | E (provided a mass modification of ≧70%) |

Next, values leading:

| IC50 (MEK1 activated ERK1) | ERK1 Mass Mod (%) (Erk1) | SMILES |
| --- | --- | --- |
| < 100 nM | E (provided a mass modification of ≧70%) | C=CS(=O)(=O)N[C@@H]1CCCC[C@H]1Nc1nc(N[C@H]2CCCN(C(=O)CO)C2)ncc1C(F)(F)F [Compound I-36, N-((1R,2R)-2-((2-(((S)-1-(2-Hydroxyacetyl)piperidin-3-yl)amino)-5-(trifluoromethyl)pyrimidin-4-yl)amino)cyclohexyl)ethenesulfonamide] |
| < 100 nM | E (provided a mass modification of ≧70%) | C=CC(=O)Nc1ccc(C)cc1Nc1nc(N[C@H]2CCCN(C(=O)CO)C2)ncc1C(F)(F)F [Compound I-37, (S)—N-(2-((2-((1-(2-hydroxyacetyl)piperidin-3-yl)amino)-5-(trifluoromethyl)pyrimidin-4-yl)amino)-4-methylphenyl)acrylamide] |
| < 100 nM | E (provided a mass modification of ≧70%) | C=CC(=O)Nc1cc(C)ccc1Nc1nc(NC2CCC(=O)CC2)ncc1C(F)(F)F [Compound I-38, N-(5-Methyl-2-((2-((4-oxocyclohexyl)amino)-5-(trifluoromethyl)pyrimidin-4-yl)amino)phenyl)acrylamide] |
| < 100 nM | E (provided a mass modification of ≧70%) | C=CC(=O)Nc1cc(C)ccc1Nc1nc(N[C@H]2CCCN(C(=O)CN)C2)ncc1C(F)(F)F [Compound I-42, (S)—N-(2-((2-((1-(2-Aminoacetyl)piperidin-3-yl)amino)-5-(trifluoromethyl)pyrimidin-4-yl)amino)-5-methylphenyl)acrylamide] |
| < 100 nM | G (proived a mass modification ≦30%) | C=C(C)S(=O)(=O)Nc1ccccc1Nc1nc(N[C@H]2CCCN(C(=O)CO)C2)ncc1C(F)(F)F [Compound I-46, (S)—N-(2-((2-((1-(2-Hydroxyacetyl)piperidin-3-yl)amino)-5-(trifluoromethyl)pyrimidin-4-yl)amino)phenyl)prop-1-ene-2-sulfonamide] |
| < 100 nM | G (proived a mass modification ≦30%) | C=C(C)S(=O)(=O)Nc1cc(C)ccc1Nc1nc(N[C@H]2CCCN(C(=O)CO)C2)ncc1C(F)(F)F [Compound I-47, (S)—N-(2-((2-((1-(2-Hydroxyacetyl)piperidin-3-yl)amino)-5-(trifluoromethyl)pyrimidin-4-yl)amino)-5-methylphenyl)prop-1-ene-2-sulfonamide] |
| < 100 nM | G (proived a mass modification ≦30%) | C=C(C)S(=O)(=O)Nc1cc(C)ccc1Nc1nc(NC2CCC(=O)CC2)ncc1C(F)(F)F [Compound I-53, N-(5-Methyl-2-((2-((4-oxocyclohexyl)amino)-5-(trifluoromethyl)pyrimidin-4-yl)amino)phenyl)prop-1-ene-2-sulfonamide] |
| < 100 nM | G (proived a mass modification ≦30%) | C=C(C)S(=O)(=O)Nc1cc(F)ccc1Nc1nc(N[C@H]2CCCN(C(=O)CO)C2)ncc1C(F)(F)F [Compound I-54, (S)—N-(5-Fluoro-2-((2-((1-(2-hydroxyacetyl)piperidin-3-yl)amino)-5-(trifluoromethyl)pyrimidin-4-yl)amino)phenyl)prop-1-ene-2-sulfonamide] |
